Where two headings read alike, the source gives them in different places.

The term viability denotes a per cent measure of how many cells are alive, often set against a control.

Common to all, as to type: cell-based
The subject of data set [1] is Panc-2 cells. The data set can be described thus: MTS assay, percent viability of Panc-2 cells. As to conditions: for cell death: time not given; for viability at 40 µM / viability at 100 µM / viability at 80 µM: read-out: percent viability of Panc-2 cells. Here is the method: (§1) In current study we have tested anti-tumor potency of 7, 3-BP analogues employing MTS and ATP assay. The percent viability of Pan-2 cells was determined in presence of graded concentration of 3BP analogues 0, 1, 2, 3, 4, 5, 6 & 7.
Panc2 cells were seeded in either 6 well plate (6-6.5×10^4 cells/well/2 ml media) or in 12 well plate (3-3.5×10^4/1 ml media) or in 96 well plate ([…] /well/100 ul) in RPMI 1640 with 10% FBS, 0.5% antibiotic media for about 12 hours, in CO2 cell culture incubator at 37 °C. The cells were treated initially with KAT 0, 5, 20, 40, 80 and 100 uM for 1, 2, 4, 8 hours and latter in separate experiments with 40 and 60 µM for 15, 30, 1 hour. For each treatment KAT was added in a volume maximum 10 ul. For control same amount of KAT buffer was used. At the end of each time point treatment MTS reagent (Cell titer 96 aqueous one solution, Promega, USA) was added to each well according to the manufacturer instruction and incubated for approx. 2 hours. After that 100 ul from each well was transferred to 96 well plate (quartiles for each treatment) and measured absorbance at 490 nm with BIOTEK synergy HT. For 96 well plate reagent was added directly to each well, incubated for 2 hours and measured absorbance at 490 nm.
For orientation: Tetrazolium assays rely on reduction of a dye to a coloured formazan, in cell work by metabolically active cells.

Data set [2] has as its system Panc-2 cells. The data set can be described thus: ATP assay (cell titer Glo2.0), ATP generation in panc-2 cells. As to conditions: 40 μM; for cells killed in terms of ATP generation: time not given. Here is the method:
as §1
For ATP assay panc2 cells (2×10^3/in 100 ul media) were seeded in each well of 96 well luminescence plate (Corning, USA) for 12 hours in media described above. Cells were treated with KAT 0, 5, 20, 40, 80, 100 for 1, 2, 4, 8 hours. In separate experiments, cells were treated with KAT 40, 60 μM for 15, 30 & 60 min. At the end of each treatment, 100 ul ATP assay reagent cell titer Glo2.0 (Promega, USA) was added in each well, shacked on a rotating shaker for 2 mins, incubated at room temperature for 10 mins in dark and luminescence was measured with BIOTEK synergy HT.
On the technique in general: In ATP-based viability assays light output follows the ATP content of the culture.

Data set [3] has as its system Panc-2 cells. Kind of data set: Imaging of morphology of treated panc-2 cells.
Data set [4] deals with Panc-2 cells. The data set can be described thus: MTS assay, percent viability of Panc-2 cells. The following applies: 40 μM; for cell death (cells killed) in terms of MTT: after 8 hours; for cells killed in terms of MTT: time not given.

Consider `O=C(O)C(=O)CBr` [Molecule 0, 3-Bromopyruvate, reference compound], for which, in the data set with Panc-2 cells [1] (40 μM, 1 hour treatment), the “cell death in Panc-2 cells” value worked out at 58%. Moreover, the “percent viability of Panc-2 cells” value in the data set with Panc-2 cells [1] (40 μM, 8 hours treatment) came out at 24%. The cells killed result in the data set on Panc-2 cells [1] (80 μM, 1 hour treatment) is reported as “about 97%”. Also, the “cell death (cells killed)” value with Panc-2 cells [1] (80 μM, 8 hours treatment) is reported as 100%. The ATP generation with Panc-2 cells [2] (1 hour treatment) was found to be 80%; with Panc-2 cells [2] (after 8 hours) it was 35%. The cell morphology result with Panc-2 cells [3] (40, 80 and 100 μM) is recorded as “change in morphology”.
Turning to `O=C(CBr)[13C](=O)O` [Molecule 1], the cells killed with Panc-2 cells [1] (80 μM, 1 hour treatment) is 79%. Also, the “cell death (cells killed)” value in the data set with Panc-2 cells [1] (80 μM, 8 hours treatment) was found to be 96%. Besides, the cell death in the data set with Panc-2 cells [1] (80 and 100 uM) is on record as 95-97%. In addition, the viability at 40 µM in the data set with Panc-2 cells [1] (1 h) turned out to be 54%; in the data set with Panc-2 cells [1] (8 h), 30%. Also, the ATP generation in the data set with Panc-2 cells [2] (1 hour treatment) turned out to be 57%; with Panc-2 cells [2] (after 8 hours) it was 7%. Further, in the data set on Panc-2 cells [2] (after 8 hours), the “cell death (cells killed) in terms of ATP generation” value (shortened to “cell death … of ATP generation”) was determined as 93%. Besides, the cell morphology entry with Panc-2 cells [3] (40 μM, after 8 hours) is “rounding and membrane blabbing”. Further, the “cell death (cells killed) in terms of MTT” value (“cell death … of MTT” below) in the data set on Panc-2 cells [4] came to 70%.
Turning to `O=C(O)[13C](=O)CBr` [Molecule 2], the cells killed result in the data set with Panc-2 cells [1] (80 μM, 4 hour treatment) was “about 99%”. The values for the viability at 40 µM in the data set on Panc-2 cells [1] (1 h) and in the data set on Panc-2 cells [1] (8 h) were roughly 52% and roughly 60%, respectively. Moreover, in the data set on Panc-2 cells [1], the viability at 100 µM is roughly 0%. Moreover, the ATP generation with Panc-2 cells [2] (1 hour treatment) was 83%; with Panc-2 cells [2] (after 8 hours), 68%. Besides, the “cells killed in terms of ATP generation” value in the data set on Panc-2 cells [2] came to 32%. Further, the cell morphology entry in the data set with Panc-2 cells [3] (80 μM, time not given) was “rounding and membrane blabbing”. In addition, the “cells killed in terms of MTT” value with Panc-2 cells [4] is on record as 40%.
For `O=C(O)C(=O)[13CH2]Br` [Molecule 3], the cells killed in the data set on Panc-2 cells [1] (80 μM, 1 hour treatment) is given as roughly 88%. The viability at 40 µM was roughly 62% in the data set on Panc-2 cells [1] (1 h) and roughly 46% in the data set with Panc-2 cells [1] (8 h). Besides, the viability at 100 µM in the data set on Panc-2 cells [1] (1 h) was roughly 5%. The values for the ATP generation entry in the data set on Panc-2 cells [2] (1 hour treatment) and in the data set with Panc-2 cells [2] (after 8 hours) were “about 80%” and “about 66%”, respectively. In addition, in the data set on Panc-2 cells [2], the “cells killed in terms of ATP generation” value is listed as “about 34%”. Also, in the data set with Panc-2 cells [3] (40 μM, after 8 hours), the cell morphology entry was “rounding and membrane blabbing”. For the same molecule, the “cells killed in terms of MTT” value in the data set with Panc-2 cells [4] is on record as “about 54%”.
Regarding `[2H]C([2H])(Br)C(=O)C(=O)O` [Molecule 4], the cells killed entry in the data set on Panc-2 cells [1] (80 μM, 1 hour treatment) is reported as “about 99%”. Further, the cell death result with Panc-2 cells [1] (100 μM) was “about 100%”. Besides, the figures for the viability at 40 µM in the data set on Panc-2 cells [1] (1 h) and in the data set on Panc-2 cells [1] (8 h) were roughly 58% and roughly 60%, respectively. Besides, the ATP generation is 91% with Panc-2 cells [2] (1 hour treatment) and “about 76%” with Panc-2 cells [2] (after 8 hours). Further, the “cells killed in terms of ATP generation” value in the data set on Panc-2 cells [2] is recorded as 32-40%. The cell morphology result in the data set on Panc-2 cells [3] (80 μM, after 2 hours) was “rounding and membrane blabbing”. The “cells killed in terms of MTT” value in the data set with Panc-2 cells [4] is 32-40%.
Regarding `OC(=[18O])C(=[18O])CBr` [Molecule 5], the results for the viability at 40 µM with Panc-2 cells [1] (1 h) and in the data set with Panc-2 cells [1] (8 h) were roughly 48% and roughly 19%, respectively. In the data set on Panc-2 cells [1] (1 h), the viability at 80 µM was roughly 6%. The viability at 100 µM with Panc-2 cells [1] is roughly 2%. The ATP generation entry in the data set with Panc-2 cells [2] (1 hour treatment) is “about 69%”; with Panc-2 cells [2] (after 8 hours) it was “about 26%”. In addition, the “cells killed in terms of ATP generation” value in the data set on Panc-2 cells [2] is “about 74%”. In the data set with Panc-2 cells [3] (40 μM, after 8 hours), the cell morphology result is “rounding and membrane blabbing”. Moreover, the “cells killed in terms of MTT” value with Panc-2 cells [4] is “about 81%”.
With `O=[13C](O)[13C](=O)[13CH2]Br` [Molecule 6], in the data set on Panc-2 cells [1] (1 h), the viability at 40 µM was roughly 66%, the viability at 80 µM is roughly 32% and the viability at 100 µM is roughly 28%. Further, the viability at 40 µM with Panc-2 cells [1] (8 h) was roughly 57%. The ATP generation in the data set on Panc-2 cells [2] (1 hour treatment) is on record as 73%. Further, in the data set with Panc-2 cells [2] (after 8 hours), the ATP generation was found to be 26% and the “cell death … of ATP generation” value is “about 74%”. The cell morphology entry in the data set with Panc-2 cells [3] (40 μM, after 8 hours) was “rounding and membrane blabbing”. The “cell death … of MTT” value in the data set with Panc-2 cells [4] was “about 43%”.
For `O=C(O)C(=O)CBr` [Molecule 7, 3-Bromopyruvate, reference compound], the “percent viability of Panc-2 cells” value in the data set with Panc-2 cells [1] (40 μM, 1 hour treatment) was “about 67%”; in the data set with Panc-2 cells [1] (40 μM, 8 hours treatment), “about 46%”; in the data set on Panc-2 cells [1] (80 μM, 1 hour treatment), “about 10%”; in the data set on Panc-2 cells [1] (100 μM, 1 hour treatment) it was “about 4%”. For the same molecule, the ATP generation is 79% in the data set with Panc-2 cells [2] (1 hour treatment) and 64% with Panc-2 cells [2] (after 8 hours). For the same molecule, in the data set with Panc-2 cells [2] (after 8 hours), the “cell death … of ATP generation” value was “about 74%”. The cell morphology result in the data set on Panc-2 cells [3] (40 μM, after 8 hours) was “rounding and membrane blabbing”. Moreover, the “cell death … of MTT” value with Panc-2 cells [4] is reported as “about 43%”.

The record behind these values is patent US20260207788A1, “HEAVY ISOTOPE 3-BP MOLECULES, COMPOSITIONS, AND TREATMENTS” (KODISCOVERY, LLC, priority 2022, published 2026).
